# Measured values reported in US20170119776A1, “CHIRAL 2,5-DISUBSTITUTED CYCLOPENTANECARBOXYLIC ACID DERIVATIVES AND USE THEREOF” (BAYER PHARMA AKTIENGESELLSCHAFT, priority 2014, published 2017).
# Experiments:
# Format in all cases: biochemical
# [1] = biological target: T1, MMP-13 (Homo sapiens, UniProt P45452); assay: In vitro MMP-13 inhibition test
# T1 construct: purchased R&D Systems 511-MP
# Text: (§1) The activity strength of the compounds according to the invention towards other MMPs (and therefore their selectivity) is likewise ascertained in in vitro inhibition tests. The MMP-mediated amidolytic cleavage of a suitable peptide substrate also leads here to a fluorescent light increase. The signal intensity of the fluorescent light is directly proportional to the enzyme activity. The active concentration of a test compound at which half of the enzyme is inhibited (50% signal intensity of the fluorescent light) is given as IC50 value.
# (§2) Recombinant MMP-13 (R&D Systems, 511-MP) is chemically activated in accordance with the manufacturer's instructions using APMA. 1 μl of the test compound to be analysed (as a solution in DMSO, suitable concentrations e.g. 1 nM to 30 μM) is pipette into 24 μl of activated enzyme (final concentration e.g. 0.1 nM) in reaction buffer (50 mM Tris/HCl pH 7.5, 10 mM CaCl2, 150 mM NaCl, 0.05% Brij®-35) in a white 384-hole microtiter plate (MTP). The enzymatic reaction is started by adding the intramolecularly quenched substrate Mca-Pro-Leu-Gly-Leu-Dpa(Dnp)-Ala-Arg-NH2 (final concentration e.g. 10 μM; R&D Systems, ES-001), such that a total test volume of 50 μl results. The progress of the MMP-13 reaction is measured by measuring the fluorescence intensity (excitation 320 nm, emission 410 nm) over a suitable period (e.g. over 120 min at a temperature of 32° C.).
# (§3) The IC50 values were determined for racemates and enantiomers from differently generated DMSO stock solutions. Whereas an automatically produced DMSO stock solution from the internal substance logistics was used for racemates by means of a standard method, in the case of enantiomers a freshly produced, manually prepared DMSO stock solution was used in each case for a more precise direct comparison of the enantiomers with one another.
# [2] = biological target: T2, MMP-16 (Homo sapiens, UniProt P51512); assay: In vitro MMP-16 inhibition test
# T2 construct: purchased R&D Systems 1785-MP
# T2 sequence (P51512 120-607): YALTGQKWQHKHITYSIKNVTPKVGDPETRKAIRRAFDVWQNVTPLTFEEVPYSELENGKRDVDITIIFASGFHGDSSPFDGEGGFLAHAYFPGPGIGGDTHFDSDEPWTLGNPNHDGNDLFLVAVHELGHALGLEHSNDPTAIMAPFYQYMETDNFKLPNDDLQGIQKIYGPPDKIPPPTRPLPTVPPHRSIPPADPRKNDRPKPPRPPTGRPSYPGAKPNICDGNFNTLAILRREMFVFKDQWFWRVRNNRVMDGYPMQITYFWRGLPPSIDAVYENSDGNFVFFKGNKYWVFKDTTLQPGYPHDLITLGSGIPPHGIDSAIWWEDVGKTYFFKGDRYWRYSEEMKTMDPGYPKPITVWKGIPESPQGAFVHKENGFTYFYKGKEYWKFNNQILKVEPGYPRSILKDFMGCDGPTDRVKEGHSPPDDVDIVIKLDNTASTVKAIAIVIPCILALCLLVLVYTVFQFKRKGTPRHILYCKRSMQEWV
# Text: as §1
# (§4) Recombinant MMP-16 (R&D Systems, 1785-MP) is enzymatically activated in accordance with the manufacturer's instructions using recombinant furin (R&D Systems, 1503-SE). 1 μl of the test compound to be analysed (as a solution in DMSO, suitable concentrations e.g. 1 nM to 30 μM) is pipette into 24 μl of activated enzyme (final concentration e.g. 1 nM) in reaction buffer (50 mM Tris/HCl pH 7.5, 10 mM CaCl2, 150 mM NaCl, 0.05% Brij®-35) in a white 384-hole microtiter plate (MTP). The enzymatic reaction is started by adding the intramolecularly quenched substrate Mca-Lys-Pro-Leu-Gly-Leu-Dpa(Dnp)-Ala-Arg-NH2 (final concentration e.g. 5 μM; R&D Systems, ES-010), such that a total test volume of 50 μl results. The progress of the MMP-16 reaction is measured by measuring the fluorescence intensity (excitation 320 nm, emission 410 nm) over a suitable period (e.g. over 120 min at a temperature of 32° C.).
# as §3
# [3] = biological target: T3, MMP-9 of the mouse (Mus musculus, UniProt P41245); assay: In vitro MMP-9 inhibition test of the mouse
# T3 construct: purchased R&D Systems 909-MP
# T3 sequence (P41245 108-730): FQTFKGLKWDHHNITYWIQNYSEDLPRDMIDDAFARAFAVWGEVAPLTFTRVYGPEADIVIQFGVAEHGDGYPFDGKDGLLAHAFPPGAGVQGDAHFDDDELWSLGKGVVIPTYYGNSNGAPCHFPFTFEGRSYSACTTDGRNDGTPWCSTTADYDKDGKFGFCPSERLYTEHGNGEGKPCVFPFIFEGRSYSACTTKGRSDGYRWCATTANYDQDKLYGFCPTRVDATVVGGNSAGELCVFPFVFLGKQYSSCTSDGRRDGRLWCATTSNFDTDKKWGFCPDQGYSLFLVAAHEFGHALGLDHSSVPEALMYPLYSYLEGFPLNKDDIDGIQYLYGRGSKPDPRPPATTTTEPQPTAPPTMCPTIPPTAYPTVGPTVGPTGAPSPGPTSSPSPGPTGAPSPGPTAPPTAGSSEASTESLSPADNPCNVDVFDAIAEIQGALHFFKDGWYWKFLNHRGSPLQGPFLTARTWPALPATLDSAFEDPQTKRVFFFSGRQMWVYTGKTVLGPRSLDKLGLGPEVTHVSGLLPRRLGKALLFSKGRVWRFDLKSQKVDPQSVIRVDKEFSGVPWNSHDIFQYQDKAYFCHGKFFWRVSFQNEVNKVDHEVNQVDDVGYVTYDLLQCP
# Text: as §1
# as §2, with “Recombinant MMP-9 of the mouse” for “Recombinant MMP-13”, “Systems, 909-MP)” for “Systems, 511-MP)”, “is pipetted” for “is pipette”, “e.g. 5” for “e.g. 10”, “the MMP-9” for “the MMP-13”
# (§5) Tables 3A and 3B below give the IC50 values from these tests for the inhibition of rodent MMPs for representative embodiment examples of the present invention and also for two structurally related comparison compounds from the prior art (as racemate and separated enantiomer)→(in part as average values from several independent individual determinations and rounded to two significant places). The IC50 values were determined for racemates and enantiomers from differently generated DMSO stock solutions. Whereas an automatically created DMSO stock solution from the internal substance logistics was used for racemates by means of a standard method, in the case of enantiomers, in each case a freshly produced, manually prepared DMSO stock solution was used for a more precise direct comparison of the enantiomers with one another.
# [4] = biological target: T4, MMP-8 of the rat (Rattus norvegicus, UniProt O88766); assay: In vitro MMP-8 inhibition test of the rat
# T4 construct: purchased R&D Systems 3245-MP
# T4 sequence (O88766 102-466): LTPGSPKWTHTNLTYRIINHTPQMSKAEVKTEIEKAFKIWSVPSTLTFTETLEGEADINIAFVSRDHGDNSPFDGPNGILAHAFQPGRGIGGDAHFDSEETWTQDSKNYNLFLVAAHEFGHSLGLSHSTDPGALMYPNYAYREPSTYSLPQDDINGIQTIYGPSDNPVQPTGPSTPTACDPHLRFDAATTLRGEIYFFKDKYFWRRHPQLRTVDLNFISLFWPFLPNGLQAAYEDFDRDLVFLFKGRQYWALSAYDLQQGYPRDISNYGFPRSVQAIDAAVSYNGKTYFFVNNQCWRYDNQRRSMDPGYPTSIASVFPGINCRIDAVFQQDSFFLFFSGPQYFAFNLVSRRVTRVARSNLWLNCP
# Text: as §1
# as §4, with “Recombinant MMP-8 of the rat” for “Recombinant MMP-16”, “Systems, 3245-MP)” for “Systems, 1785-MP)”, “is chemically” for “is enzymatically”, “using APMA. […]” for “using recombinant furin (R&D Systems, 1503-SE). 1”, “is pipetted” for “is pipette”, “the MMP-8” for “the MMP-16”
# as §5
# [5] = biological target: T5, MMP-9 of the rat (Rattus norvegicus, UniProt P50282); assay: In vitro MMP-9 inhibition test of the rat
# T5 construct: purchased R&D Systems 5427-MM
# T5 sequence (P50282 108-708): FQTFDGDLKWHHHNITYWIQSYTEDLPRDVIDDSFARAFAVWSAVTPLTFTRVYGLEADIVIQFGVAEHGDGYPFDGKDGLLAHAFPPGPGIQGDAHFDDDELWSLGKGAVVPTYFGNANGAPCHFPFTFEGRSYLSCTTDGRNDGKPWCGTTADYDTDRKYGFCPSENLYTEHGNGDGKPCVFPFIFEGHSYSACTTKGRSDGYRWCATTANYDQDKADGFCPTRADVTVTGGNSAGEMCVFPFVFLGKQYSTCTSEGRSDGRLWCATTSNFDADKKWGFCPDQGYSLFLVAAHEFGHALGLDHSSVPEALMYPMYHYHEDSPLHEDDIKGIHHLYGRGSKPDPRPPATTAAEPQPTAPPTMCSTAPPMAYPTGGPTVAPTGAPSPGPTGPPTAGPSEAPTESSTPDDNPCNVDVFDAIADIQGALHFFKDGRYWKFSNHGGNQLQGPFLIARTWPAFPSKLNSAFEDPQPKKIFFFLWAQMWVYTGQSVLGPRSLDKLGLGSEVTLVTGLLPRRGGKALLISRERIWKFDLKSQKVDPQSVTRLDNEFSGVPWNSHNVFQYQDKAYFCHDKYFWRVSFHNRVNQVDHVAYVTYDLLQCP
IC50 [1] [µM],IC50 [2] [µM],IC50 [3] [µM],IC50 [4] [µM],IC50 [5] [µM],Compound
0.00082,0.0052,0.0015,0.0014,0.0033,"O=C(O)[C@@H]1[C@@H](Cn2nnc3ccccc3c2=O)CC[C@H]1C(=O)c1ccc(-c2ccc(Cl)cc2)cc1 (single isomer, unassigned; enantiomer 2) [Comparative Example A-3, (1RS,2RS,5SR)-2-[(4′-Chlorobiphenyl-4-yl)carbonyl]-5-[(4-oxo-1,2,3-benzotriazin-3(4H)-yl)methyl]cyclopentanecarboxylic acid (enantiomer 2)]"
0.03,0.13,0.071,0.1,0.11,"O=C(O)[C@H]1[C@H](Cn2nnc3ccccc3c2=O)CC[C@@H]1C(=O)c1ccc(OCc2ccccc2)cc1 (racemic) [Example 1, (+/−)-(1RS,2RS,5SR)-2-[4-(Benzyloxy)benzoyl]-5-[(4-oxo-1,2,3-benzotriazin-3(4H)-yl)methyl]cyclopentanecarboxylic acid (racemate)]"
0.0145,0.0785,0.0275,0.0385,0.0465,"O=C(O)[C@H]1[C@H](Cn2nnc3ccccc3c2=O)CC[C@@H]1C(=O)c1ccc(OCc2ccccc2)cc1 [Example 2, (+)-(1S,2S,5R)-2-[4-(Benzyloxy)benzoyl]-5-[(4-oxo-1,2,3-benzotriazin-3(4H)-yl)methyl]cyclopentanecarboxylic acid]"

# Further lines, the compound ahead of its results:
Compound,IC50 [1] [µM],IC50 [2] [µM],IC50 [3] [µM],IC50 [4] [µM],IC50 [5] [µM]
"O=C(O)[C@H]1[C@H](Cn2nnc3ccccc3c2=O)CC[C@@H]1C(=O)c1ccc(-c2ccc(Cl)cc2)cc1 (racemic) [Comparative Example A-1, (1RS,2RS,5SR)-2-[(4′-chlorobiphenyl-4-yl)carbonyl]-5-[(4-oxo-1,2,3-benzotriazin-3(4H)-yl)methyl]cyclopentanecarboxylic acid (racemate)]",0.0018,0.016,0.0049,0.0014,0.0046
"CCCCCOc1ccc(C(=O)CC(CCn2nnc3ccccc3c2=O)C(=O)O)cc1 (racemic) [Comparative Example B-1, (+/−)-4-Oxo-2-[2-(4-oxo-1,2,3-benzotriazin-3(4H)-yl)ethyl]-4-[4-(pentyloxy)phenyl]butanoic acid (racemate)]",1.8,22,2.7,3.5,3.2
"CCCCCOc1ccc(C(=O)CC(CCn2nnc3ccccc3c2=O)C(=O)O)cc1 (single isomer, unassigned; enantiomer 1) [Comparative Example B-2, (+)-4-Oxo-2-[2-(4-oxo-1,2,3-benzotriazin-3(4H)-yl)ethyl]-4-[4-(pentyloxy)phenyl]butanoic acid (enantiomer 1)]",0.36,6.7,0.905,1.04,1.35
